Where a SMILES comes first, the peptide text is derived from it. Bridges are numbered along the chain shown (N, C = ends). [ ]: non-standard residue; d: D form. The star is where a group is joined. Palmitoyl = CCCCCCCCCCCCCCCC(=O)*; AEEA = NCCOCCOCC(=O)O
Columns and labels:
[1] = Compound gel-forming ability in water (visual inspection, tube tapping assay, tilted tube assay); type: physicochemical; details: for gel formation at 11% w/w: 11% w/w in water; for gel formation at 20% w/w: 20% w/w in water; for gel formation in aqueous solution, 6% / propensity to form gels, chimeric or mutated polypeptides, 6%: 6% w/w;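 for all read-outs here: peptides mixed with de-ionized water at about 22-25 °C, judged after 20 min by eye plus tube tapping (10 taps, moves counted) and 90° tilt mobility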
[2] = biological target: T1, bradykinin receptor 2 (BDKRB2) (Homo sapiens, UniProt P30411); assay: BDKRB2 arrestin assay (Discoverx), antagonistic; type: cell-based
T1 sequence (P30411 1-391): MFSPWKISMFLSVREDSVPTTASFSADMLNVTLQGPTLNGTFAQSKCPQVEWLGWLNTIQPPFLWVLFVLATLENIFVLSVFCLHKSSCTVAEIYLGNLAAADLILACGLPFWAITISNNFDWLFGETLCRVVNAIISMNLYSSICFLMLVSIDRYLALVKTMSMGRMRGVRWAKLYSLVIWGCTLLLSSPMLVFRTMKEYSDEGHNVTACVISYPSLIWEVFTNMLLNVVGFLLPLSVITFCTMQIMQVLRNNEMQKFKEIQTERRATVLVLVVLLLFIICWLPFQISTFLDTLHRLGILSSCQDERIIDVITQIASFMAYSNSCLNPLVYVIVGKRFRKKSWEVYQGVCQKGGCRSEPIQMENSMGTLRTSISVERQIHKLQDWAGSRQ
Experimental: For the Arrestin assays, PathHunter cell lines (Discoverx Inc.) were expanded from freezer stocks, and seeded in a total volume of 20 μL into white walled, 384-well microplates and incubated at 37 C for the appropriate time prior to testing. […] For antagonistic activity determination, cells were pre-incubated with antagonist followed by agonist challenge at the EC80 concentration. Intermediate dilution of sample stocks was performed to generate 5× sample in assay buffer, and 5 μL of 5× sample was added to cells and incubated at 37° C. or room temperature for 30 minutes. Vehicle concentration was 1%. Then, 5 μL of 6×EC80 agonist in assay buffer was added to the cells and incubated at 37 C or room temperature for 90 or 180 minutes.
Assay signal was generated through a single addition of 12.5 or 15 μL (50% v/v) of PathHunter Detection reagent cocktail, followed by an one hour incubation at room temperature. The microplates were read following signal generation with a PerkinElmer Envision™ instrument for chemiluminescent signal detection. The compound activity was analyzed using a CBIS data analysis suite (ChemInnovation, CA). […] For antagonistic activity assays, percentage inhibition was calculated using the following formula: % Inhibition=100%×(1−(mean RLU of test sample−mean RLU of vehicle control)/(mean RLU of EC80 control−mean RLU of vehicle control)).

[3] = biological target: kappa opioid receptor (OPRK1) (Homo sapiens, UniProt P41145); assay: OPRK1 cAMP assay (Discoverx), agonistic; type: cell-based
kappa opioid receptor (OPRK1), sequence (P41145 whole entry): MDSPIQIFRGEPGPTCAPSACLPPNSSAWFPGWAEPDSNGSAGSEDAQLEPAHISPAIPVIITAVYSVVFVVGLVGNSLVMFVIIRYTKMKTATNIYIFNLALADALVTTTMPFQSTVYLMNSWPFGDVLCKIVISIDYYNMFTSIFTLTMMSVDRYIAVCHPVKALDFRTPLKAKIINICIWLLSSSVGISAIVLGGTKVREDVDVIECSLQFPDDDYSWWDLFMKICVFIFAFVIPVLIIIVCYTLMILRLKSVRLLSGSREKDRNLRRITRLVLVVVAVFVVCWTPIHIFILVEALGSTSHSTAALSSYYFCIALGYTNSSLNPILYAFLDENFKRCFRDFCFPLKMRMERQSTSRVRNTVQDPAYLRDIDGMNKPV
Experimental: (§1) The agonistic activities toward MC1R, MC4R, CRHR2, PTHR1, and OPRK1 were assyed with an MC1R cAMP assay, an MC4R cAMP assay, a CRHR2 cAMP assay, a PTHR1 cAMP assay and an OPRK1 cAMP assay from Discoverx Inc. (Fremont, Calif.), respectively. The antagonistic activities toward bradykinin receptor 2 (BDKRB2) and GnRH receptor (GnRHR or LHRHR) were assayed with a BDKRB2 arrestin assay and a GnRHR calcium flux assay from Discoverx, respectively.
(§2) For the analysis of Gs-coupled cAMP production, cAMP Hunter cell lines were expanded from freezer stocks, and cells were seeded in a total volume of 20 μL into white walled, 384-well microplates and incubated at 37 C for the appropriate time prior to testing. The cAMP modulation was determined using the DiscoverX HitHunter cAMP XS+ assay. For agonistic activity determination, cells were incubated with sample to induce response. Media was aspirated from cells and replaced with 15 μL 2:1 HBSS/10 mM Hepes: cAMP XS+ Ab reagent. […] The compound activity was analyzed using a CBIS data analysis suite (ChemInnovation, CA). For Gs-coupled agonistic assays, percentage activity is calculated using the following formula: % Activity=100%×(mean RLU of test sample−mean RLU of vehicle control)/(mean RLU of MAX control−mean RLU of vehicle control).

[4] = biological target: melanocortin receptor 4 (MC4R) (Homo sapiens, UniProt P32245); assay: MC4R cAMP assay (Discoverx), agonistic; type: cell-based
melanocortin receptor 4 (MC4R), sequence (P32245 whole entry): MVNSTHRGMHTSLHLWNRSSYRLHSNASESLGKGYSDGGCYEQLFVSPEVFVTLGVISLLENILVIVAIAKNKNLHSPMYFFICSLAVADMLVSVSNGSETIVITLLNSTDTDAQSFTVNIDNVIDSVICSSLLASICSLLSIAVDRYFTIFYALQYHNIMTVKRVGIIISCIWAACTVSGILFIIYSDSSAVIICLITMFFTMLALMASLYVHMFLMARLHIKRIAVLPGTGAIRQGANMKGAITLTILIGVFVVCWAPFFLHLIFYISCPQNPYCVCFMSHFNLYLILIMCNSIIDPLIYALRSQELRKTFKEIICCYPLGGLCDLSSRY
Experimental: as §1, §2

PTH receptor 1 (PTHR1) = biological target: T2, PTH receptor 1 (PTHR1) (Homo sapiens, UniProt Q03431); assay: PTHR1 cAMP assay (Discoverx), agonistic; type: cell-based
T2 sequence (Q03431 27-593): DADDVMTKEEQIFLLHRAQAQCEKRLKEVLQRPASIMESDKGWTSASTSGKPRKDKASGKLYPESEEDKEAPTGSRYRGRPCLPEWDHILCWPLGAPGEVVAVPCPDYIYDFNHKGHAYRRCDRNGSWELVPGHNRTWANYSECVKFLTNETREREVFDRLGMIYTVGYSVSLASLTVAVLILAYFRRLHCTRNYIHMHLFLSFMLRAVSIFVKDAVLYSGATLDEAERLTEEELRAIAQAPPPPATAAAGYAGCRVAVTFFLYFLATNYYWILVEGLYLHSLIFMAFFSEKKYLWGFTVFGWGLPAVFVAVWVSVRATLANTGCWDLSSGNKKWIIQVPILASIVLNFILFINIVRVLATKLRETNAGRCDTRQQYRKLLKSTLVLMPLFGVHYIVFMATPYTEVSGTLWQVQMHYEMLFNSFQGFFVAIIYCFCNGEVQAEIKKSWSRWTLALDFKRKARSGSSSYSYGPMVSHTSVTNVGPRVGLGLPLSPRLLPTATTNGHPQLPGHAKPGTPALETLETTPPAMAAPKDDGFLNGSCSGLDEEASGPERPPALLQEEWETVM
Experimental: as §1, §2

CRH receptor 2 (CRHR2) = biological target: T3, CRH receptor 2 (CRHR2) (Homo sapiens, UniProt Q13324); assay: CRHR2 cAMP assay (Discoverx), agonistic; type: cell-based
T3 sequence (Q13324 1-411): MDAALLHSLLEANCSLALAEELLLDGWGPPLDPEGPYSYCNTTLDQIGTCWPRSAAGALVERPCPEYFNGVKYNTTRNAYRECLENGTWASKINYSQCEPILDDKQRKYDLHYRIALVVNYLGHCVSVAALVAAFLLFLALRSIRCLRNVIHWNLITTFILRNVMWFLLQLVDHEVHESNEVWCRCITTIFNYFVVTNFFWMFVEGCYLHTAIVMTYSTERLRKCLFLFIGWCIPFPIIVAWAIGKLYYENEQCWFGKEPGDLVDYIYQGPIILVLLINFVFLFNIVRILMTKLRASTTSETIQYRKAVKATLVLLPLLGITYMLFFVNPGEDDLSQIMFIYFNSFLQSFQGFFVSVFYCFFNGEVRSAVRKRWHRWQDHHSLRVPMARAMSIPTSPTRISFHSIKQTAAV
Experimental: as §1
For the analysis of Gs-coupled cAMP production, cAMP Hunter cell lines were expanded from freezer stocks, and cells were seeded in a total volume of 20 μL into white walled, 384-well microplates and incubated at 37 C for the appropriate time prior to testing. The cAMP modulation was determined using the DiscoverX HitHunter cAMP XS+ assay. For agonistic activity determination, cells were incubated with sample to induce response. Media was aspirated from cells and replaced with 15 μL 2:1 HBSS/10 mM Hepes: cAMP XS+ Ab reagent. Intermediate dilution of sample stocks was performed to generate 4× sample in assay buffer, and 5 μL of 4× sample was added to cells and incubated at 37 C or room temperature for 30 or 60 minutes. Vehicle concentration was 1%. The compound activity was analyzed using a CBIS data analysis suite (ChemInnovation, CA). For Gs-coupled agonistic assays, percentage activity is calculated using the following formula: % Activity=100%×(mean RLU of test sample−mean RLU of vehicle control)/(mean RLU of MAX control−mean RLU of vehicle control).

Row | Molecule | gel formation at 11% w/w [1] | gel formation at 20% w/w [1] | gel formation in aqueous solution, 20% ([1]; Table 3, 20% w/w) | propensity to form gels, chimeric or mutated polypeptides, 11% ([1]; Table 5, 11% w/w) | gel formation in aqueous solution, 11% ([1]; Table 3, 11% w/w) | propensity to form gels, chimeric or mutated polypeptides, 20% ([1]; Table 5, 20% w/w) | also measured
1 | N=C(N)NCCC[C@@H](N)C(=O)N[C@@H](CCCNC(=N)N)C(=O)N1CCC[C@H]1C(=O)N1C[C@H](O)C[C@H]1C(=O)NCC(=O)N[C@@H](Cc1cccs1)C(=O)N[C@@H](CO)C(=O)N1Cc2ccccc2C[C@@H]1C(=O)N1[C@H](C(=O)N[C@@H](CCCNC(=N)N)C(=O)O)C[C@@H]2CCCC[C@@H]21 [SEQ ID NO:32, (D-Arg)-Arg-Pro-Hyp-Gly-Thi-Ser-(D-Tic)-Oic-Arg, reference compound] | does not form gel | does not form gel | AS/IS (AS/IS for aqueous solution or insoluble) | – | AS/IS (AS/IS for aqueous solution or insoluble) | – | gel formation at 30% w/w ([1]; 30% w/w in water): does not form gel; Physical property at 11% w/w ([1]; Table 1, 11% w/w in aqueous solution, room temperature): AS/IS; gel formation in aqueous solution, 30% ([1]; Table 3, 30% w/w): AS/IS (AS/IS for aqueous solution or insoluble); propensity to form gels, wild-type counterparts, 11% ([1]; Table 5, 11% w/w): AS/IS; propensity to form gels, wild-type counterparts, 20% ([1]; Table 5, 20% w/w): AS/IS; Max Activity % of positive control [2]: 100 % of positive control
2 | CCCCCCCCCCCCCCCC(=O)N[C@@H](CO)C(=O)N[C@@H](CO)C(=O)N1CCC[C@H]1C(=O)N[C@@H](Cc1c[nH]cn1)C(=O)N[C@@H](CO)C(=O)N[C@@H](Cc1ccc(O)cc1)C(=O)NCCOCCOCC(=O)N[C@H](Cc1ccccc1)C(=O)N[C@H](Cc1ccccc1)C(=O)N[C@@H](Cc1c[nH]c2ccccc12)C(=O)N[C@H](CCCNC(=N)N)C(=O)O [SEQ ID NO:214, Pal-SSPHSY-miniPEG-(D-Phe)-(D-Phe)-Trp-(D-Arg)] (Palmitoyl-SSPHSY[AEEA][dF][dF]W[dR]-OH; N-terminus and C-terminus assumed) | semisolid gel | – | – | SS (An ability to form semisolid gel is represented by an SS) | SS (SS for semisolid gel) | – | gel formation at 3% w/w ([1]; 3% w/w in water): liquid gel; gel formation at 6% w/w ([1]; 6% w/w in water): semisolid gel; gel formation in aqueous solution, 6% ([1]; Table 3): SS (SS for semisolid gel); propensity to form gels, chimeric or mutated polypeptides, 6% ([1]; Table 5): SS (An ability to form semisolid gel is represented by an SS); Max Activity % of positive control [3]: 62 % of positive control
3 | CCCCCCCCCCCCCCCC(=O)N[C@@H](Cc1c[nH]cn1)C(=O)N[C@@H](CO)C(=O)N[C@@H](Cc1ccc(O)cc1)C(=O)N[C@@H](CCCNC(=N)N)C(=O)N[C@H]1CSSC[C@@H](C(N)=O)NC(=O)[C@H](Cc2c[nH]c3ccccc23)NC(=O)[C@H](CCCNC(=N)N)NC(=O)[C@@H](Cc2ccccc2)NC(=O)[C@H](Cc2c[nH]cn2)NC(=O)[C@@H](C)NC1=O [SEQ ID NO:228, Pal-HSYRC-(D-Ala)-H-(D-Phe)-RWC-NH2] (Palmitoyl-HSYRC[dA]H[dF]RWC-NH2; disulfide 5-11 (inferred)) | – | – | – | – | – | – | Max Activity % of positive control [4]: 115 % of positive control
4 | PTH (1-34) [reference compound] | – | – | – | – | – | – | Max Activity % of positive control (PTH receptor 1 (PTHR1)): 101 % of positive control
5 | Palmitoyl-SSPHSY[AEEA]IVLSLDVPIGLLQILLEQARARAAREQATTNARILARVGHC-NH2 [SEQ ID NO:230] | – | semisolid or liquid gel | SS (SS for semisolid gel) | AS/IS | AS/IS (AS/IS for aqueous solution or insoluble) | SS (An ability to form semisolid gel is represented by an SS) | Max Activity % of positive control (CRH receptor 2 (CRHR2)): 100 % of positive control

More lines, main results first:

Row | gel formation at 11% w/w [1] | gel formation at 20% w/w [1] | gel formation in aqueous solution, 20% ([1]; Table 3, 20% w/w) | propensity to form gels, chimeric or mutated polypeptides, 11% ([1]; Table 5, 11% w/w) | Molecule | gel formation in aqueous solution, 11% ([1]; Table 3, 11% w/w) | propensity to form gels, chimeric or mutated polypeptides, 20% ([1]; Table 5, 20% w/w) | also measured
6 | liquid gel | semisolid gel | SS (SS for semisolid gel) | – | CCCCCCCCCCCCCCCC(=O)N[C@@H](Cc1c[nH]cn1)C(=O)N[C@@H](CO)C(=O)N[C@@H](Cc1ccc(O)cc1)C(=O)N[C@@H](CO)C(=O)N[C@@H](CCC(=O)O)C(=O)N[C@H](C(=O)N[C@@H](CCC(N)=O)C(=O)N[C@@H](CC(C)C)C(=O)N[C@@H](CCSC)C(=O)N[C@@H](Cc1c[nH]cn1)C(=O)N[C@@H](CC(N)=O)C(=O)N[C@@H](CC(C)C)C(=O)NCC(=O)N[C@@H](CCCCN)C(=O)N[C@@H](Cc1c[nH]cn1)C(=O)N[C@@H](CC(C)C)C(=O)N[C@@H](CC(N)=O)C(=O)N[C@@H](CO)C(=O)N[C@@H](CCSC)C(=O)N[C@@H](CCC(=O)O)C(=O)N[C@@H](CCCNC(=N)N)C(=O)N[C@H](C(=O)N[C@@H](CCC(=O)O)C(=O)N[C@@H](Cc1c[nH]c2ccccc12)C(=O)N[C@@H](CC(C)C)C(=O)N[C@@H](CCCNC(=N)N)C(=O)N[C@@H](CCCCN)C(=O)N[C@@H](CCCCN)C(=O)N[C@@H](CC(C)C)C(=O)N[C@@H](CCC(N)=O)C(=O)N[C@@H](CC(=O)O)C(=O)N[C@H](C(=O)N[C@@H](Cc1c[nH]cn1)C(=O)N[C@@H](CC(N)=O)C(=O)N[C@@H](Cc1ccccc1)C(=O)O)C(C)C)C(C)C)[C@@H](C)CC [SEQ ID NO:232] (Palmitoyl-HSYSEIQLMHNLGKHLNSMERVEWLRKKLQDVHNF-OH; C-terminus assumed) | – | SS (An ability to form semisolid gel is represented by an SS) | Max Activity % of positive control (PTH receptor 1 (PTHR1)): 59 % of positive control
7 | – | semisolid gel | SS (SS for semisolid gel) | AS/IS | CCCCCCCCCCCCCCCC(=O)N[C@@H](Cc1c[nH]cn1)C(=O)N[C@@H](CO)C(=O)N[C@@H](Cc1ccc(O)cc1)C(=O)N[C@H](CCCNC(=N)N)C(=O)N[C@@H](CCCNC(=N)N)C(=O)N1CCC[C@H]1C(=O)N1C[C@H](O)C[C@H]1C(=O)NCC(=O)N[C@@H](Cc1cccs1)C(=O)N[C@@H](CO)C(=O)N1Cc2ccccc2C[C@@H]1C(=O)N1[C@H](C(=O)N[C@@H](CCCNC(=N)N)C(N)=O)C[C@@H]2CCCC[C@@H]21 [SEQ ID NO:234, Pal-HSY-(D-Arg)-Arg-Pro-Hyp-Gly-Thi-Ser-(D-Tic)-Oic-Arg-NH2] | AS/IS (AS/IS for aqueous solution or insoluble) | SS (An ability to form semisolid gel is represented by an SS) | gel formation in aqueous solution, 6% ([1]; Table 3): AS/IS (AS/IS for aqueous solution or insoluble); propensity to form gels, chimeric or mutated polypeptides, 6% ([1]; Table 5): AS/IS; Max Activity % of positive control [2]: 112 % of positive control; IC50 ([2]; bradykinin-stimulated): 53.3 nM

— patent publication US20200405868A1, “GEL-FORMING POLYPEPTIDES” (priority 2018, published 2020)
